Converted amounts (≈) assume the structure as drawn.
What was measured:
[1] = target: Clostridium difficile DNA gyrase (Clostridioides difficile, UniProt Q18C89); assay: DNA supercoiling inhibition assay; format: biochemical; conditions: supercoiling of relaxed pBR322 DNA, 60 minutes at 37° C.
In short: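 Relaxed pBR322 (400 ng) supercoiled by C. difficile gyrase for 60 min at 37 °C in Tris-HCl pH 7.5 with 6 mM MgCl2, 70 mM KCl, compounds added from 20% DMSO. Products resolved on 1.0% agarose, EtBr-stained; supercoiled band intensity quantified and IC50 fitted.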

[2] = tested on: Clostridium difficile 2009155, a NAP1/027 strain; assay: Hamster CDI model; format: in vivo; conditions: 0.3 mg/kg/day by oral route, 5 days
Procedure: The in vivo efficacy of test compounds were evaluated in a hamster CDI model caused by Clostridium difficile 2009155, a NAP1/027 strain. Syrine hamsters (6-8-weeks old) were primed with a single subcutaneous injection of clindamycin (30 mg/kg) 1-5 days prior to infection. Hamsters were infected by oral gavage with 1 ml of spore suspension ([…]) prepared in PBS. The drug was administered to the hamsters 6 hours post infection by oral or subcutaneous route at an interval of 24 hours for 5 days. The death and survival of the non-treated group and the drug-administered group were recorded once daily for 35 days.

S. aureus ATCC 29213 = assay: Susceptibility of bacteria, broth microdilution MIC; format: cell-based; conditions: Staphylococcus aureus, ATCC29213
In short: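 CLSI M7-A7 broth microdilution with 2-fold serial compound dilutions; inoculum from 0.5 McFarland suspension diluted 10-fold, 4 μL per well. Incubated 35 °C for about 20 h; MIC is the lowest concentration preventing visible growth.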

[3] = tested on: Clostridium difficile ATCC 43255; assay: Susceptibility of Clostridium difficile, agar dilution MIC; format: cell-based; conditions: Clostridioides difficile, ATCC43255, anaerobic
In short: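 Agar dilution per CLSI M11-A8 on supplemented Brucella agar containing compound dilutions. Inoculum from 0.5 McFarland suspension, 1-2 μL spots; anaerobic incubation at 36° C for 42 to 48 hours. MIC read by eye as the concentration giving marked growth reduction versus compound-free anaerobic control plates.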

E. faecium ATCC 29212 = assay: Susceptibility of bacteria, broth microdilution MIC; format: cell-based; conditions: Enterococcus faecium, ATCC29212
Procedure: (§1) The antibacterial activity of the compounds of the present invention was tested by the broth microdilution method. The assay was carried out according to the CLSI guidelines for managing the procedures of susceptibility tests: “M7-A7 Methods for Dilution Antimicrobial Susceptibility Tests for Bacteria That Grow Aerobically; Approved Standard-Seventh Edition (2006)”. Test strains were grown on appropriate agar plates overnight. A broth containing the test compound diluted serially 2-fold and diluents were dispensed at 100 μL to each well of a 96-well microplate. As a growth control, a well with a broth not containing the test compound was also prepared. Colonies grown on the plates were suspended in saline, adjusted to 0.5 McFarland (OD625=0.08 to 0.10) using a colorimeter, and then diluted 10-fold with saline. The bacterial suspension was inoculated at 4 μL into each well of the microplate using a bacterial suspension inoculation apparatus. The inoculated microplate was incubated at 35° C. overnight (about 20 hours). The growth condition was observed by the naked eye, and the minimum concentration to inhibit bacterial proliferation was defined as a minimum inhibitory concentration (MIC).

[4] = tested on: Streptococcus pneumoniae ATCC 49619; assay: as above; format: cell-based; conditions: ATCC49619
Procedure: as §1

[5] = tested on: Haemophilus influenzae ATCC 49247; assay: as above; format: cell-based; conditions: ATCC49247
Procedure: as §1

[6] = Oral bioavailability (BA) in rats; format: in vivo; conditions: male, SD, blood; Rat, 2 mg/kg oral vs jugular vein
Procedure: To SD male rats (7 week-old) fasted overnight, a solution of the test compound Captisol® was administered into the jugular vein (3 animals) and a solution of Lutrol® F68 was administered orally (3 animals). The dose of the test compounds was 2 mg/kg body weight of the rat for both administration routes. The amount of Captisol® used was 0.36 mg/kg body weight of the rat. The amount of Lutrol® F68 used was 0.02 mg/kg body weight of the rat. The BA value was calculated by the formula below using the integration value (AUCiv(0-∞)) of the blood concentration extrapolated from time 0 to infinity after administration of both test compounds. The greater a BA value of the compound shown, the higher the oral bioavailability is.

Clostridium difficile DNA gyrase, sequence (Q18C90 entry or part of it): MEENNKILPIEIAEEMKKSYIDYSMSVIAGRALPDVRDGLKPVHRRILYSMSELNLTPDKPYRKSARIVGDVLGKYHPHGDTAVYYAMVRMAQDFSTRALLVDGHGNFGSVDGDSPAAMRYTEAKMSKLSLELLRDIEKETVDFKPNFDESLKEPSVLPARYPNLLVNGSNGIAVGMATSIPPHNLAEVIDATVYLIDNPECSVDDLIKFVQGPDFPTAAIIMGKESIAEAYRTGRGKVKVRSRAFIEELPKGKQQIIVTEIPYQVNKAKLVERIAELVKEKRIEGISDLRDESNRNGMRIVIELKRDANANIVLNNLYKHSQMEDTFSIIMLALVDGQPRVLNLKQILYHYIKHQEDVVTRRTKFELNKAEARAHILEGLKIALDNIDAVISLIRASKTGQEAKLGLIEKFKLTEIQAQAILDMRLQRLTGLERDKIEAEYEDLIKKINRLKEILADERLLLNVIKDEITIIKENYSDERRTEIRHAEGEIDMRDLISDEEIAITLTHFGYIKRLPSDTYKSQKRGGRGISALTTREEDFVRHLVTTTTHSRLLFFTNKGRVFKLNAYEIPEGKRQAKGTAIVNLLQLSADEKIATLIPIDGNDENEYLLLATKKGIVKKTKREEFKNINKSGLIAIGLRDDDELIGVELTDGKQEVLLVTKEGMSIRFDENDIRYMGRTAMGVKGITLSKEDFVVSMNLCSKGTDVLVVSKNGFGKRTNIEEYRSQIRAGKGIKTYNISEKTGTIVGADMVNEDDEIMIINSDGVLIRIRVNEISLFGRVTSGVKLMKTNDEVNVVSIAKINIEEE
Clostridium difficile DNA gyrase, sequence (Q18C89 entry or part of it): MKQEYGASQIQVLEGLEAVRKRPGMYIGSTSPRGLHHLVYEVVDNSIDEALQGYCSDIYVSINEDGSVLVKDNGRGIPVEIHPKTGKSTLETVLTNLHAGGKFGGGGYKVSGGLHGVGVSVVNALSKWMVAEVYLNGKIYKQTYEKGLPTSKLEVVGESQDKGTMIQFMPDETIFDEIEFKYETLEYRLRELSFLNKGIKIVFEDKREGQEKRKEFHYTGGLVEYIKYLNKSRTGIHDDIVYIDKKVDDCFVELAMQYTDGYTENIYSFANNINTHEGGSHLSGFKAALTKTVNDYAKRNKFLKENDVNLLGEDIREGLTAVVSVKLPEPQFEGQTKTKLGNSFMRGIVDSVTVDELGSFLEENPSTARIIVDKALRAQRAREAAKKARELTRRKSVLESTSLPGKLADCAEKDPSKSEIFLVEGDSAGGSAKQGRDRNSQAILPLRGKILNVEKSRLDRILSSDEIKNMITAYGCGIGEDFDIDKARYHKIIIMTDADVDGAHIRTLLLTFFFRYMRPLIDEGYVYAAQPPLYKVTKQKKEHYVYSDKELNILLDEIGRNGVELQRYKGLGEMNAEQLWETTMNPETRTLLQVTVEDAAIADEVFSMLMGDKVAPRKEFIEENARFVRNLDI

For `CCc1[nH]c(C(=O)N[C@@H]2CCN(c3nnc([C@H](C)O)s3)C[C@@H]2OC)nc1Cl` (single isomer, unassigned) [Compound No. 5], the IC50 [1] was 21.7 nM, the “survival on day 35” value [2] was 100% and the MIC (S. aureus ATCC 29213) was 0.5 µg/mL (≈ 1.21 µM). For the same compound, the MIC [3] was 0.125 µg/mL (≈ 0.301 µM), the MIC (E. faecium ATCC 29212) was 0.25 µg/mL (≈ 0.603 µM) and the MIC [4] was 0.25 µg/mL (≈ 0.603 µM). It also gave an MIC [5] of 1 µg/mL (≈ 2.41 µM) and a bioavailability [6] of 60%.

In the case of `CCc1[nH]c(C(=O)N[C@@H]2CCN(c3nnc(C(C)(C)O)s3)C[C@@H]2OC)nc1Cl` [Compound No. 2, 4-Chloro-5-ethyl-N-{(3S,4R)-1-[5-(2-hydroxypropan-2-yl)-1,3,4-thiadiazol-2-yl]-3-methoxypiperidin-4-yl}-1H-imidazole-2-carboxamide], the IC50 [1] is reported as 46.6 nM, the “survival on day 35” value [2] is reported as 100% and the MIC (S. aureus ATCC 29213) is reported as 0.25 µg/mL (≈ 0.583 µM). It also gave an MIC [3] of 0.06 µg/mL (≈ 0.14 µM), an MIC (E. faecium ATCC 29212) of 0.25 µg/mL (≈ 0.583 µM) and an MIC [4] of 0.25 µg/mL (≈ 0.583 µM). The MIC [5] was 0.5 µg/mL (≈ 1.17 µM) and the bioavailability [6] was 98%.

From US10399968B2, “Hydroxyalkyl thiadiazole derivatives” (Daiichi Sankyo Company, Limited, priority 2015, dated 2019)
